Publication PMC3602595, “The Structure of HasB Reveals a New Class of TonB Protein Fold” (PLoS ONE, 2013)
Ends that are not written are not given here.

What was measured:
TonBCTD = target: T1, TonBCTD (Escherichia coli, UniProt P02929); test: ITC interaction of TonBCTD with TonB box peptide; type: binding, E. coli
T1 construct: TonBCTD (TonB C-terminal domain); made in house
Method: Labeled and unlabeled HasBCTD (named HasB133 in our earlier publication) were prepared as described. TonBCTD of E. coli , previously named TonB116, was prepared as already reported. HasB mutations were introduced by PCR into the plasmid encoding HasBCTD wild type with the following pairs of oligonucleotides:
(§1) The TonB box peptides were synthesized with free acid C- and amine N-termini by Proteogenix (Strasbourg, France).
(§2) ITC was performed at 25°C using a MicroCal VP titration calorimeter (MicroCal-GE Healthcare) under the same conditions as described previously. The buffer was 20 mM sodium phosphate, pH 7, 50 mM NaCl for all the titrations, except for experiments carried out in the presence of HasR where 20 mM sodium phosphate, pH 7, 0.08% ZW 3–14 was used.
(§3) The heat of dilution of peptide/protein injections was determined either by injecting the ligand into the buffer alone or by injecting the ligand into the cell after the saturation of the protein binding site. The value obtained was subtracted from the heat of reaction to give the effective heat of binding. The resulting titration data were analyzed using Microcal-ORIGIN software package. The molar binding stoichiometry (N), association constant (Ka; Kd = 1/Ka) and enthalpy changes (ΔH) of binding were determined by fitting the binding isotherm to a model with one set of sites. Their values are the average of three experiments. HasBCTD/TonBCTD titrations with peptides were carried out by injecting 20–35 consecutive aliquots of 5–10 µL of a 1–1.5 mM peptide solution into the ITC cell containing 4 to 9×10^−5 M of protein solution of either HasBCTD or TonBCTD. For HasR titration experiments with HasB, 5–8×10^−5 M of HasBCTD wild type or mutants and 3–5 µM of HasR were used.

HasBCTD [1] = test: ITC interaction of HasBCTD with HasR TonB box peptides; type: binding, Serratia marcescens
Method: as §1, §2
as §3, with “HasBCTD/TonBCTD titrations with peptides were carried out by injecting 20–35 consecutive aliquots of 5–10 µL of a 1–1.5 mM peptide solution into the ITC cell containing 4 to 9×10^−5 M of protein solution of either HasBCTD or TonBCTD.” left out

HasBCTD [2] = test: NMR chemical shift perturbation of HasBCTD by HasR TonB box peptides; type: binding, Serratia marcescens; details: for chemical shift perturbation in 15N-1H HSQC spectra of HasBCTD: NMR HSQC, 293K, 50 mM sodium phosphate buffer, pH 7, 50 mM NaCl, 15% D2O/H2O, peptide:HasBCTD ratios 1∶2 to 4∶1, CSP >0.2 ppm considered large
Method: All NMR experiments were recorded at 293K on a Varian 600 MHz spectrometer with a cryogenically cooled triple resonance ^1H/(^15N/^13C) PFG probe. Proton chemical shifts were referenced to 2,2-dimethyl-2-silapentane-5-sulfonate (DSS) as 0 ppm. ^15N and ^13C chemical shifts were referenced indirectly to DSS. The pulse sequences were taken as implemented in the Varian BioPack. NMR data were processed using NMRPipe/NMRDraw and spectra were analyzed using NMRViewJ and CCPNMR Analysis, [24]. The HasB samples used for NMR experiments were from 0.35 to 0.7 mM in 50 mM sodium phosphate buffer, pH 7, 50 mM NaCl and 15% D2O/H2O (v/v).
CSP values of ^1H and ^15N amide of HasBCTD were obtained after interaction with the TonB box peptide by comparing the ^1H-^15N HSQC spectra of free and bound HasBCTD as previously explained. The samples were prepared in 50 mM sodium phosphate buffer, pH 7, 50 mM NaCl and 15% D2O/H20 (v/v). Lyophilized peptides were added to the HasBCTD solution at 1∶2, 1∶1, 2∶1 and 4∶1 ratios. CSP values greater than 0.2 ppm were considered as large. For proline residues no chemical shift change can be observed because of the lack of backbone amide proton.

[3] = Conformation of 21-mer peptide in solution by 2D TOCSY, NOESY and ROESY; type: physicochemical; details: free peptide, data not shown

T1 sequence (P02929 148-239): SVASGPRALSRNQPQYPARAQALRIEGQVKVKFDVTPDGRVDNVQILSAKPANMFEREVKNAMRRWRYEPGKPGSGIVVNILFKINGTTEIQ

Sequence | affinity (association constant Ka) (TonBCTD; ITC, TonBCTD, 25°C, 20 mM sodium phosphate, pH 7, 50 mM NaCl, one set of sites, average of three experiments) | Kd (TonBCTD; ITC, TonBCTD, 25°C, 20 mM sodium phosphate, pH 7, 50 mM NaCl, Kd = 1/Ka) | interaction with TonBCTD (in words) (TonBCTD; same range of concentration as that used with HasBCTD) | interaction with HasBCTD (in words) (HasBCTD [1]; ITC and NMR CSP) | chemical shift perturbation in 15N-1H HSQC spectra of HasBCTD (HasBCTD [2]) | conformation in solution [3] | affinity constant (Ka) (HasBCTD [1]; ITC, HasBCTD, 25°C, 20 mM sodium phosphate, pH 7, 50 mM NaCl, one set of sites, average of three experiments, HasBCTD 9×10^−5 M, peptide 1.5 mM) | Kd (HasBCTD [1]; ITC, HasBCTD, 25°C, 20 mM sodium phosphate, pH 7, 50 mM NaCl, Kd = 1/Ka) | location of the most substantial CSP on HasBCTD (HasBCTD [2]; 15N HSQC, 21-mer peptide)
ALDSLTVLGAGG [dodecamer peptide] | about 2×10^4 M^−1 | 50 µM | able to bind to TonBCTD | did not reveal any interaction with HasBCTD | no chemical shift perturbation could be observed | – | – | – | –
GDGGALALDSLTVLGAGGNNA [21-mer peptide] | – | – | – | – | several CSP were observed | unstructured in solution | 40000 M⁻¹ | 25 µM | especially along the strand β3 and on the helix H1
